Results: patent US8809358B2, “Use of IκB-kinase inhibitors in pain therapy” (Sanofi-Aventis Deutschland GmbH, priority 2002, dated 2014)

How the values were obtained:
[1] = system: Kaolin/carrageenan-induced knee joint inflammation; experiment: Kaolin/carrageenan-induced knee joint inflammation in the rat: reaction of spinal neurons during pressure stimulation of the knee; type: in vivo
Description: • Zymosan-induced paw inflammation in the rat; • Parameter: paw withdrawal time or paw withdrawal threshold during thermal or mechanical stimulation of the hind paw. 2nd Model: • Kaolin/carrageenan-induced knee joint inflammation in the rat; • Parameter: reaction of spinal neurons during pressure stimulation of the knee. Model 1
Experimental implementation: In rats which were under sodium thiopental anesthesia, the spinal canal was opened and spinal medullary neurons which processed the “pain impulses” from the knee-joint were identified. Following identification, a long-term recording, in which the activity of the nerve cell was recorded before and during the development of an acute inflammation in the knee-joint, was carried out. For this, the responses to non-noxious and noxious stimulation at the knee-joint were measured in a control period before inducing the inflammation and for several hours after inducing the inflammation.
The acute inflammation was induced by the intraarticular injection of a suspension (about 150 μl) of kaolin and carrageenan. In controlled experiments, only the vehicle was applied to the spinal medullary surface in order to represent the development of the hyperexcitability under control conditions. As a rule, this development of hyperexcitability took place within 2 to 4 hours and was expressed in a marked increase in the responses to non-noxious and noxious stimulation of the knee-joint (Tab. 3). […] The responses of the cell to non-noxious and noxious stimulation were then subsequently monitored as in the control experiments.

IκB-kinase = molecular target: T1, IκB-kinase (Homo sapiens, UniProt O14920+O15111); experiment: IκB-Kinase ELISA; type: biochemical; settings: kinase complex from HeLa S3 cell extract, activated with MEKK1Δ
T1 construct: endogenous in cells; host or cells: HeLa S3 cell extract S100; ammonium sulfate cut and Superose-6 gel filtration (670 kDa fractions)
T1 sequence (O14920 whole entry): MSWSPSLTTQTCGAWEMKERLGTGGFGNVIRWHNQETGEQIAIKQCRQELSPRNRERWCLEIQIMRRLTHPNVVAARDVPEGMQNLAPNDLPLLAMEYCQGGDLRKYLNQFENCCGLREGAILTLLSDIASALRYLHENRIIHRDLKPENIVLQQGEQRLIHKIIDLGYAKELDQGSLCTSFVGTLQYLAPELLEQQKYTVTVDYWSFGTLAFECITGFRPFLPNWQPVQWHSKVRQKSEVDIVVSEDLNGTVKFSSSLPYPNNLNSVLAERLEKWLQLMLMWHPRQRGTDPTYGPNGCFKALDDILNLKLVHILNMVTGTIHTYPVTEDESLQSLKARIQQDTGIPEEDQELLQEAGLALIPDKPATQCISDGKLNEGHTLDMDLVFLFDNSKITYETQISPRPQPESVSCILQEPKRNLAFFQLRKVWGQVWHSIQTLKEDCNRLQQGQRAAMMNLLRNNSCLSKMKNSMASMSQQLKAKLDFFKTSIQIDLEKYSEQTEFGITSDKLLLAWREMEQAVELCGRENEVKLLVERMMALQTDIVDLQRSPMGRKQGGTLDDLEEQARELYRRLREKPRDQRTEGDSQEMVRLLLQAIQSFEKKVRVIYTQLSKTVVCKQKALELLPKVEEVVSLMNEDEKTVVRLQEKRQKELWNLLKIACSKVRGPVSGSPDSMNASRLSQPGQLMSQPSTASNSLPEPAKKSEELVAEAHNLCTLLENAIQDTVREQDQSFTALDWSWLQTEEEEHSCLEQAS
T1 sequence (O15111 whole entry): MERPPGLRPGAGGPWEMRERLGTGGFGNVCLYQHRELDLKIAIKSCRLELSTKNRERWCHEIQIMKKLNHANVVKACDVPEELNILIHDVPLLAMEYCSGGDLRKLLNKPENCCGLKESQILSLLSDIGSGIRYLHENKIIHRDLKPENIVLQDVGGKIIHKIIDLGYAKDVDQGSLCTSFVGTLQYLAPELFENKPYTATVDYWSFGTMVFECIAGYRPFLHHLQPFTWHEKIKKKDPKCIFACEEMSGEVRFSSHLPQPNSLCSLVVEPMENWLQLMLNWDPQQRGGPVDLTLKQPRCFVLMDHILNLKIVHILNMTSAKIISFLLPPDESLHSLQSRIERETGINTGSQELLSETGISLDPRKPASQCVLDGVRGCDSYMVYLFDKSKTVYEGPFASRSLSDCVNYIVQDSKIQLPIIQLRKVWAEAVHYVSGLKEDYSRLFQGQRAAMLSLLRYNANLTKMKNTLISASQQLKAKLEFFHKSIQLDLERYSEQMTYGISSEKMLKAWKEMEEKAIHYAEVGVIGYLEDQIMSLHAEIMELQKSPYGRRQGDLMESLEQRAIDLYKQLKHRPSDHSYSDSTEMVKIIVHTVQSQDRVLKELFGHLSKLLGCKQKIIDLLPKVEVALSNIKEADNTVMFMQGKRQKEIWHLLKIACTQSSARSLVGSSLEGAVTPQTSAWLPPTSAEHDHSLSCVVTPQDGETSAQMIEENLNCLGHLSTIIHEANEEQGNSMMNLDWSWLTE
T1 sequence (Q9Y6K9 whole entry partner): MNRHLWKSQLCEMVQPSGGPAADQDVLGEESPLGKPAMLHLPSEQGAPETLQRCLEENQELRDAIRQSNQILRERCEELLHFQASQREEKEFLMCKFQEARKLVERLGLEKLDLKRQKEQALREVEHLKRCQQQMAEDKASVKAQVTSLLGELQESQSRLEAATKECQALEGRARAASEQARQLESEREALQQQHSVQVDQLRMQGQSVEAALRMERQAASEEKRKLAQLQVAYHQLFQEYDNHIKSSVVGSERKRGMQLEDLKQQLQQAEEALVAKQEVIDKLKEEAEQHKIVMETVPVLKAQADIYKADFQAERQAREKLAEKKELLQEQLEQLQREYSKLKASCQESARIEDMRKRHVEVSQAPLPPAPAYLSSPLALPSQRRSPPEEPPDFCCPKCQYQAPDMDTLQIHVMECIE

[2] = system: Zymosan-induced paw inflammation; experiment: Zymosan-induced paw inflammation in the mouse: paw withdrawal time during thermal stimulation of the hind paw; type: in vivo; settings: thermal hyperalgesia AUC, seven days; 200 mg/kg twice daily
Method: • Zymosan-induced paw inflammation in the mouse; • Parameter: paw withdrawal time during thermal stimulation of the hind paw. Experimental implementation: In short-term anesthesia using isoflurane, 25 μl of a suspension containing 50 mg of zymosan/ml were injected into the right hind paw of the experimental animal. The development of a hyperalgesia was then determined quantitatively as follows: Determining the Paw Withdrawal Time During Thermal Stimulation (Hargreave's Test; See Above). The experimental animal was placed in a transparent plastic chamber having a glass floor. As soon as the experimental animal was no longer moving, following the reconnaissance phase (about 5 min), an infrared light source was positioned directly below the hind paw to be stimulated and switched on. The lamp emitted focused infrared light of increasing intensity such that the skin temperature of the hind paw increased almost linearly. As soon as the animal withdrew the paw, the lamp switched itself off. The temperature of the paw at the time it is withdrawn has just become unpleasant for the animal; this is referred to as the thermal pain threshold. Shortly before the zymosan injection, and for from 7 to 14 days after the injection, the thermal pain threshold was determined once daily on the right hind paw and left hind paw. Subsequently, the integral of the area which was formed from the curves for the paw withdrawal times of the inflamed paw and the noninflamed paw (AUC, area between the curves, see tables 5 and 6) was determined as a measure of the hyperalgesia. The larger this value is, the more pronounced is the hyperalgesia, and the smaller the value is in animals which are being given the substance, the greater is the success of the therapy. […] A very high dose of paracetamol was likewise administered twice daily to another group of animals which was taken through the experiment in parallel. […] The scheme for zymosan injection and dosing was identical to that in the previously described study. The only difference was that this additional study ran for 14 days.

[3] = system: Zymosan-induced paw inflammation; experiment: Zymosan-induced paw inflammation in the mouse: spontaneous running performance in a running wheel; type: in vivo, C57/B6 mice
Method: 4th Model: • Zymosan-induced paw inflammation in the mouse; • Parameter: spontaneous running performance in a running wheel. In the cage in which it is kept, the experimental animal has access to a running wheel, the revolutions of which are recorded electronically. During the night hours, the C57/B6 mice use the running wheel voluntarily and, after a one-week phase of acclimatization, cover on average 4 100 meters/night. After zymosan has been injected, the distance run each night is reduced. This reduction in running performance is a valid parameter for a restriction in function which is due to inflammation pain. Experimental implementation: After an acclimatization phase of one week, the distance run/24 hours was measured in order to determine the base line. 25 μl of a suspension containing 50 mg of zymosan/ml were then injected into the right hind paw of the experimental animal during short-term anesthesia using isoflurane. The distance run/24 hours was then determined during the following seven days. In the analysis, the area under the curve for the values for the distance run was determined (AUC, tab. 7): the lower the AUC, the lower was the running performance during the week following injection of the zymosan. […] The substance was administered for the first time on day 1 after injection of the zymosan.

CNc1nccc(-c2nc3cc(C(=O)N[C@@H](CN(c4ccccc4)c4ccccc4)C(N)=O)ccc3[nH]2)n1 [Compound 22, N—((S)-1-carbamoyl-2-diphenylaminoethyl)-2-(2-methylaminopyrimidin-4-yl)-1H-benzimidazole-5-carboxamide]
Neuronal responses before and during knee-joint inflammation (imp/15 s) ([1]; Experiment 1, Non-noxious stimulation at the knee-joint, 30-60 min after K/C injection): −34.1 imp/15 s
Neuronal responses before and during knee-joint inflammation (imp/15 s) ([1]; Experiment 1, Non-noxious stimulation at the knee-joint, 60-120 min after K/C injection): −37.2 imp/15 s
Neuronal responses before and during knee-joint inflammation (imp/15 s) ([1]; Experiment 1, Non-noxious stimulation at the knee-joint, 120-180 min after K/C injection): −32.1 imp/15 s
Neuronal responses before and during knee-joint inflammation (imp/15 s) ([1]; Experiment 1, Non-noxious stimulation at the knee-joint, Baseline): 0 imp/15 s
Neuronal responses before and during knee-joint inflammation (imp/15 s) ([1]; Experiment 1, Noxious stimulation at the knee-joint, 30-60 min after K/C injection): −109.1 imp/15 s
Neuronal responses before and during knee-joint inflammation (imp/15 s) ([1]; Experiment 1, Noxious stimulation at the knee-joint, 60-120 min after K/C injection): −101.1 imp/15 s
Neuronal responses before and during knee-joint inflammation (imp/15 s) ([1]; Experiment 1, Noxious stimulation at the knee-joint, 120-180 min after K/C injection): −37.8 imp/15 s
Neuronal responses before and during knee-joint inflammation (imp/15 s) ([1]; Experiment 1, Noxious stimulation at the knee-joint, Baseline): 0 imp/15 s
Neuronal responses before and during knee-joint inflammation (imp/15 s) ([1]; Experiment 2, Non-noxious stimulation at the knee-joint, 30-60 min after K/C injection): −30.6 imp/15 s
Neuronal responses before and during knee-joint inflammation (imp/15 s) ([1]; Experiment 2, Non-noxious stimulation at the knee-joint, 120-180 min after K/C injection): 50.3 imp/15 s
Neuronal responses before and during knee-joint inflammation (imp/15 s) ([1]; Experiment 2, Non-noxious stimulation at the knee-joint, 180-240 min after K/C injection): 68.7 imp/15 s
Neuronal responses before and during knee-joint inflammation (imp/15 s) ([1]; Experiment 2, Non-noxious stimulation at the knee-joint, Baseline): 0 imp/15 s
Neuronal responses before and during knee-joint inflammation (imp/15 s) ([1]; Experiment 2, Noxious stimulation at the knee-joint, 30-60 min after K/C injection): −9.2 imp/15 s
Neuronal responses before and during knee-joint inflammation (imp/15 s) ([1]; Experiment 2, Noxious stimulation at the knee-joint, 120-180 min after K/C injection): 60 imp/15 s
Neuronal responses before and during knee-joint inflammation (imp/15 s) ([1]; Experiment 2, Noxious stimulation at the knee-joint, 180-240 min after K/C injection): 96.7 imp/15 s
Neuronal responses before and during knee-joint inflammation (imp/15 s) ([1]; Experiment 2, Noxious stimulation at the knee-joint, Baseline): 0 imp/15 s
effect in model 2 ([1]; rat): good effect
IC50 (IκB-kinase): 45 nM

CC(=O)Nc1ccc(O)cc1 [Paracetamol, reference compound]
Statistical difference as compared with the vehicle [2]: yes
distance run as compared with the vehicle group ([3]; mouse, 7 days, extremely high dose): no improvement
Statistical difference as compared with the vehicle ([3]; running wheel AUC, seven days, 200 mg/kg twice daily): no
